# Assay results taken from patent US11633415B2, “Compounds and methods useful for treating or preventing cancers” (priority 2017, dated 2023).
# Target: CSNK1A1 (Homo sapiens (Human), UniProt P48729)
# Assay: Kinase enzymatic IC50 (Carna Biosciences mobility shift assay)
# Type: biochemical
# Settings: Table 1, CSNK1A1 inhibitors; read-out: IC50
# Method: (§1) Enzymatic assays were performed using a mobility shift assay on the LabChip system. Purified kinase protein was incubated with ATP, substrate, and assay buffer (20 mM Hepes—pH 7.5; 5 mM MgCl2, and 0.01% Triton X-100). The assay reaction was initiated with 5 μM ATP and with each compound present. Compounds were tested at the KM,ATP for the protein target (GST-tagged full-length human CK1α, available from Carna Biosciences, Japan) or over a range of ATP concentrations between 5 μM and 9 μM. […] AC50 values were determined using phosphorylated and unphosphorylated substrates.
# CSNK1A1, sequence (P48729 whole entry): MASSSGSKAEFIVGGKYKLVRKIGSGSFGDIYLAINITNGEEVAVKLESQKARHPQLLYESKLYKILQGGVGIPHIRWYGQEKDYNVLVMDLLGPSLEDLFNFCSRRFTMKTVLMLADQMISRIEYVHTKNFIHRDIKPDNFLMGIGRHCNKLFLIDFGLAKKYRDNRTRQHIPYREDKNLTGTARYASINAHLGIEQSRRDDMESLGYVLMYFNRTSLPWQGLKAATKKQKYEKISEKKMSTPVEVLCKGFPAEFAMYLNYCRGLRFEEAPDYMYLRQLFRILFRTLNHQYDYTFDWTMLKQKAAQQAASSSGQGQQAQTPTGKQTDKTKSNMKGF
row,Structure (SMILES),IC50 [µM]
1,"CN1CCN(c2nc3ccccc3nc2C(C#N)C(=O)OCC(C)(C)C)CC1 (centres unmarked) [2,2 dimethyl propyl 2-cyano-2-(3-(4-(methylpiperazin-1-yl)quinoxalin-2-yl)acetate]",0.715
2,"CC(C)(C)COC(=O)C(C#N)c1nc2ccccc2nc1N1CCNCC1 (centres unmarked) [2,2 dimethyl propyl 2-cyano-2-(3-(4-(piperazin-1-yl)quinoxalin-2-yl)acetate]",0.21
3,CCC(CC)COC(=O)C(C#N)c1nc2ccccc2nc1N1CCC(N)CC1 (centres unmarked) [2-ethylbutyl 2-cyano-2-(3-(4-(amino)piperidin-1-yl)quinoxalin-2-yl)acetate],3.32
4,CCC(CC)COC(=O)C(C#N)c1nc2ccccc2nc1N1CCC(CN)CC1 (centres unmarked) [2-ethylbutyl 2-cyano-2-(3-(4-(aminomethyl)piperidin-1-yl)quinoxalin-2-yl)acetate],1.75
5,CCC(CC)COC(=O)C(C#N)c1nc2ccccc2nc1N1CCN(C)CC1 (centres unmarked) [2-ethylbutyl 2-cyano-2-(3-(4-(methylpiperazin-1-yl)quinoxalin-2-yl)acetate],0.399
6,CCC(CC)COC(=O)C(C#N)c1nc2ccccc2nc1N1CCNCC1 (centres unmarked) [2-ethylbutyl 2-cyano-2-(3-(4-(piperazin-1-yl)quinoxalin-2-yl)acetate],0.094
7,N#CC(C(=O)OCc1ccccc1F)c1nc2ccccc2nc1N1CCNCC1 (centres unmarked) [2-fluorobenzyl 2-cyano-2-(3-(4-(piperazin-1-yl)quinoxalin-2-yl)acetate],1.88
8,N#CC(C(=O)OCc1cccc(N)c1)c1nc2ccccc2nc1N1CCNCC1 (centres unmarked) [3-aminobenzyl 2-cyano-2-(3-(4-(piperazin-1-yl)quinoxalin-2-yl)acetate],4.13
9,N#CC(C(=O)OCc1cccc(F)c1)c1nc2ccccc2nc1N1CCNCC1 (centres unmarked) [3-fluorobenzyl 2-cyano-2-(3-(4-(piperazin-1-yl)quinoxalin-2-yl)acetate],0.268
10,CN1CCN(c2nc3ccccc3nc2C(C#N)C(=O)OCc2ccc(F)cc2)CC1 (centres unmarked) [4-fluorobenzyl 2-cyano-2-(3-(4-(methylpiperazin-1-yl)quinoxalin-2-yl)acetate],2.89
11,N#CC(C(=O)OCc1ccc(F)cc1)c1nc2ccccc2nc1N1CCNCC1 (centres unmarked) [4-fluorobenzyl 2-cyano-2-(3-(4-(piperazin-1-yl)quinoxalin-2-yl)acetate],1.29
12,"Nc1ncnc2c1c(COc1cccc(Cl)c1)nn2C1CCOCC1 [PF4800567, 3-(3-chloro-phenoxymethyl)-1-(tetrahydro-pyran-4-yl)-1H-pyrazolo[3,4-d]pyrimidin-4-ylamine, reference compound]",0.857
13,N#CC(C(=O)OCc1ccccc1)c1nc2ccccc2nc1N1CCC(N)CC1 (centres unmarked) [benzyl 2-(3-(4-aminopiperidin-1-yl)quinoxalin-2-yl)-2-cyanoacetate],1.89
14,CNC1CCN(c2nc3ccccc3nc2C(C#N)C(=O)OCc2ccccc2)CC1 (centres unmarked) [benzyl 2-cyano-2-(3-(4-(methylamino)piperidin-1-yl)quinoxalin-2-yl)acetate],4.39
15,"CCC(CC)COC(=O)C(C#N)c1nc2ccccc2nc1N1CCN(CC)CC1 (centres unmarked) [compound 3, 2-ethylbutyl 2-cyano-2-(3-(4-ethylpiperazin-1-yl)quinoxalin-2-yl)acetate]",5
16,"CN1CCN(c2nc3ccccc3nc2C(C#N)C(=O)OC2CCCCC2)CC1 (centres unmarked) [compound 4, cyclohexyl 2-cyano-2-(3-(4-methylpiperazin-1-yl)quinoxalin-2-yl)acetate]",3.18

# Same assay, conditions: known inhibitors, background text (rounded Table 1 values); read-out: IC50 against CSNK1A1
row,Structure (SMILES),IC50 [µM]
1,"Nc1ncnc2c1c(COc1cccc(Cl)c1)nn2C1CCOCC1 [PF4800567, 3-(3-chloro-phenoxymethyl)-1-(tetrahydro-pyran-4-yl)-1H-pyrazolo[3,4-d]pyrimidin-4-ylamine, reference compound]",0.86

# Target: GST-tagged full-length human CK1α (Homo sapiens (Human), UniProt P48729)
# Sequence (P48729 whole entry): as above
# Assay: Kinase enzymatic assay, mobility shift on LabChip system (AC50)
# Type: biochemical
# Settings: mean AC50; 5 μM ATP; 1 μM Profiler Pro FL-Peptide 16 substrate
# Method: as §1
row,Structure (SMILES),AC50 [µM]
1,CCC(CC)COC(=O)C(C#N)c1nc2ccccc2nc1N1CCNC(C(C)C)C1 (centres unmarked),1.39
2,CCC(CC)COC(=O)C(C#N)c1nc2ccccc2nc1N1CCNC(Cc2ccccc2)C1 (centres unmarked),1.27
3,N#CC(C(=O)OCC1CCCCCC1)c1nc2ccccc2nc1N1CCNCC1 (centres unmarked),0.355
4,CN1CCN(c2nc3ccccc3nc2C(C#N)C(=O)OCC2CCCCC2)CC1 (centres unmarked),0.029
5,CCC(CC)COC(=O)C(C#N)c1nc2ccccc2nc1N1CCNC(C)(C)C1 (centres unmarked),0.159
6,CC(C)COC(=O)C(C#N)c1nc2ccccc2nc1N1CCC(C(N)=O)CC1 (centres unmarked),4.64
7,N#CC(C(=O)OCc1ccncc1)c1nc2ccccc2nc1N1CCNCC1 (centres unmarked),0.468
8,N#CC(C(=O)OCC1CCCC1)c1nc2ccccc2nc1N1CCNCC1 (centres unmarked),0.138
9,CCC(CC)COC(=O)C(C#N)c1nc2ccccc2nc1N1CCNC(c2ccccc2)C1 (centres unmarked),2.22
10,CCC(CC)COC(=O)C(C#N)c1nc2ccccc2nc1N1CCN[C@@H](C)C1 (some centres unmarked),1.22
11,CCC(CC)COC(=O)C(C#N)c1nc2ccccc2nc1N1CCNC(CC)C1 (centres unmarked),0.958
12,CCC(CC)COC(=O)C(C#N)c1nc2ccccc2nc1N1CCNC(CO)C1 (centres unmarked),0.517
13,N#CC(C(=O)OCC1CCCCC1)c1nccnc1N1CCNCC1 (centres unmarked),0.304
14,CCC(CC)COC(=O)C(C#N)c1nc2ccccc2nc1N1CCNC(C(=O)OC)C1 (centres unmarked),3.15
15,CCC(CC)COC(=O)C(C#N)c1nc2ccccc2nc1NC1CCNCC1 (centres unmarked),1.33
16,CCC(CC)COC(=O)C(C#N)c1nc2ccccc2nc1N1CCNC(=O)C1 (centres unmarked),1.74
17,N#CC(C(=O)NCC1CCCCC1)c1nc2ccccc2nc1N1CCNCC1 (centres unmarked),1.76
18,N#CC(C(=O)OCc1cccnc1)c1nc2ccccc2nc1N1CCNCC1 (centres unmarked),0.95
19,N#CC(C(=O)OCC1CCCCC1)c1nc2ccccc2nc1N1CCNCC1 (centres unmarked),0.02
20,CCC(CC)COC(=O)C(C#N)c1nc2ccccc2nc1N1CCNC(C)C1 (centres unmarked),0.434
21,N#CC(C(=O)OCc1ccc2ccccc2c1)c1nc2ccccc2nc1N1CCNCC1 (centres unmarked),3.87
22,CCC(CC)COC(=O)C(C#N)c1nc2ccccc2nc1N1CCN[C@H](C)C1 (some centres unmarked),0.333
23,N#C/C(C(=O)OCC1CCCCC1)=C1/Nc2c(F)cccc2N=C1N1CCNCC1,1.14
24,N#C/C(C(=O)OCC1CCCCC1)=C1/Nc2ccc(F)cc2N=C1N1CCNCC1,0.065
25,N#C/C(C(=O)OCC1CCCCC1)=C1/Nc2ccc(-c3ccccc3F)cc2N=C1N1CCNCC1,0.043
26,N#C/C(C(=O)OCC1CCCCC1)=C1/Nc2ccc(-c3ccccc3O)cc2N=C1N1CCNCC1,0.043

row,Structure (SMILES),AC50 [µM]
1,N#C/C(C(=O)NCc1ccccc1)=C1/Nc2ccccc2N=C1N1CCNCC1,1.92
2,N#C/C(C(=O)OCC1CCCCC1)=C1/Nc2cccc(F)c2N=C1N1CCNCC1,0.405
3,N#C/C(C(=O)OCC1CCCCC1)=C1/Nc2ccc([N+](=O)[O-])cc2N=C1N1CCNCC1,0.158
4,N#C/C(C(=O)OCC1CCCCC1)=C1/Nc2ccc(-c3ccccc3)cc2N=C1N1CCNCC1,0.27
5,N#C/C(C(=O)OCC1CCCCC1)=C1\C=C(N2CCNCC2)N=CN1,3.78
6,N#C/C(C(=O)OCC1CCCCC1)=C1/Nc2ccc(-c3ccc(O)cc3)cc2N=C1N1CCNCC1,0.013
7,N#C/C(C(=O)OCC1CCCCC1)=C1/Nc2ccc(-c3cccc(F)c3)cc2N=C1N1CCNCC1,0.108
8,N#C/C(C(=O)OCC1CCCCC1)=C1/Nc2ccccc2C=C1N1CCNCC1,1.33
9,N#C/C(C(=O)OCC1CCCCC1)=C1/Nc2ccc(-c3ccc(F)cc3)cc2N=C1N1CCNCC1,0.074
10,N#C/C(C(=O)OCC1CCCCC1)=C1/NC=NC=C1N1CCNCC1,0.467
11,N#C/C(C(=O)CCC1CCCCC1)=C1/Nc2ccccc2N=C1N1CCNCC1,3.15
12,CN1CCN(c2nc3ccccc3nc2C(C#N)C(=O)OC2CCCCC2)CC1 (centres unmarked) [drawing 113],3.5
13,CC(C)(C)COC(=O)C(C#N)c1nc2ccccc2nc1N1CCNCC1 (centres unmarked) [drawing 115],0.151
14,CN1CCN(c2nc3ccccc3nc2C(C#N)C(=O)OCC(C)(C)C)CC1 (centres unmarked) [drawing 117],0.822
15,N#CC(C(=O)OCc1ccccc1F)c1nc2ccccc2nc1N1CCNCC1 (centres unmarked) [drawing 123],1.51
16,CCC(CC)COC(=O)C(C#N)c1nc2ccccc2nc1N1CCC(CN)CC1 (centres unmarked) [drawing 124],2.6
17,CCC(CC)COC(=O)C(C#N)c1nc2ccccc2nc1N1CCC(N)CC1 (centres unmarked) [drawing 126],4.22
18,N#CC(C(=O)OCc1ccc(F)cc1)c1nc2ccccc2nc1N1CCNCC1 (centres unmarked) [drawing 129],2.73
19,N#CC(C(=O)OCc1ccccc1)c1nc2ccccc2nc1N1CCC(N)CC1 (centres unmarked) [drawing 131],1.82
20,N#CC(C(=O)OCc1cccc(F)c1)c1nc2ccccc2nc1N1CCNCC1 (centres unmarked) [drawing 134],0.353
21,N#CC(C(=O)OCc1cccc(N)c1)c1nc2ccccc2nc1N1CCNCC1 (centres unmarked) [drawing 141],3.8
22,CCC(CC)COC(=O)C(C#N)c1nc2ccccc2nc1N1CCN(C)CC1 (centres unmarked) [drawing 142],1.34
23,CN1CCN(c2nc3ccccc3nc2C(C#N)C(=O)OCc2ccc(F)cc2)CC1 (centres unmarked) [drawing 146],2.04
24,CNC1CCN(c2nc3ccccc3nc2C(C#N)C(=O)OCc2ccccc2)CC1 (centres unmarked) [drawing 147],3.65
25,CCC(CC)COC(=O)C(C#N)c1nc2ccccc2nc1N1CCNCC1 (centres unmarked) [drawing 149],1.94

# System: colorectal carcinoma cell line HT29
# Assay: Cell viability assay, HT29
# Type: cell-based
# Settings: Homo sapiens, HT-29; HT29, 72 hours from plating (48 hours from compound administration)
# Method: Cell viability assays were conducted against colorectal carcinoma cell line HT29. Cells were plated in wells and at 24 hours after plating, compounds were added to determine their effect on cell viability at various dosages. After 48 hours from compound administration, the cell viability was determined and the IC50 values were calculated. […] FIG. 4B illustrates the results of another cell viability measurement and IC50 value for Compound 1 assessed by ATP abundance on HT29 at 5 days.
row,Structure (SMILES),IC50 [µM]
1,CCC(CC)COC(=O)C(C#N)c1nc2ccccc2nc1N1CCNC(C)(C)C1 (centres unmarked),2.13
2,CN1CCN(c2nc3ccccc3nc2C(C#N)C(=O)OCc2ccccc2)CC1 (centres unmarked),56.8
3,N#CC(C(=O)OCC1CCCCC1)c1nc2ccccc2nc1N1CCNCC1 (centres unmarked),3.78
4,N#C/C(C(=O)OCC1CCCCC1)=C1/Nc2ccc(-c3ccccc3F)cc2N=C1N1CCNCC1,1.9
5,N#C/C(C(=O)OCC1CCCCC1)=C1/Nc2ccc(-c3ccccc3O)cc2N=C1N1CCNCC1,0.837
6,N#C/C(C(=O)OCC1CCCCC1)=C1/Nc2ccc(-c3ccc(O)cc3)cc2N=C1N1CCNCC1,0.472
7,N#C/C(C(=O)OCC1CCCCC1)=C1/Nc2ccc(-c3cccc(F)c3)cc2N=C1N1CCNCC1,2.31
8,N#C/C(C(=O)OCC1CCCCC1)=C1/Nc2ccc(-c3ccc(F)cc3)cc2N=C1N1CCNCC1,1.78
9,N#C/C(C(=O)OCC1CCCCC1)=C1/Nc2cc(N)ccc2N=C1N1CCNCC1,3.71
10,N#C/C(C(=O)OCC1CCCCC1)=C1/Nc2cccc(N)c2N=C1N1CCNCC1,5.46
11,CN1CCN(c2nc3ccccc3nc2C(C#N)C(=O)OC2CCCCC2)CC1 (centres unmarked) [drawing 113],10000
12,CCN1CCN(c2nc3ccccc3nc2C(C#N)C(=O)OC2CCCCC2)CC1 (centres unmarked) [drawing 166],17.4
